Measurements from patent US6696495B2, “Treatment of disorders secondary to organic impairments” (Snowden Pharmaceuticals, LLC, priority 1998, dated 2004).
Like-named read-outs stand apart in the source and are kept apart here.

Assays:
[1] = test system: Tourette's Tics, Asocial Behavior, and Relief of Hyposexuality; settings: for response to other medications: before sibutramine
[2] = test system: Reflex Sympathetic Dystrophy Syndrome (RSDS); Complex Regional Pain Syndrome (CRPS); experiment: Case history 27; type: in vivo, human
[3] = test system: Severe Atypical Psychosis; experiment: Case history 1, Sibutramine Patient No. 97; type: in vivo, human
[4] = test system: Non-Tourette's tics, obsessive-compulsive rituals, and attention deficit hyperactive disorder (ADHD); settings: before sibutramine
[5] = test system: Sexual Obsessive-Compulsive Behavior, ADD and Executive Function; experiment: Case history 6, Sibutramine Patient No. 77; type: in vivo, human; settings: before sibutramine
[6] = test system: Sexual Function, ADD, and Rage Outbursts; experiment: Case history 3, Sibutramine Patient No. 100; type: in vivo, human
[7] = test system: Severe Post-Traumatic Stress Reaction
Procedure: Finally, this patient was taken off of fluoxetine 20 mg when sibutramine treatment was initiated.

[8] = test system: Asocial Behavior, Violence, and Hyposexuality; experiment: Case history 10, Sibutramine Patient No. 54; type: in vivo, human; settings: before sibutramine
[9] = test system: Tourette's Disease Tics, Violence, and ADHD; experiment: Case history 8, Sibutramine Patient No. 47; type: in vivo, human
[10] = test system: Sexual Gender Choice Change; experiment: Case history 7, Sibutramine Patient No. 99; type: in vivo, human
[11] = test system: frontal lobe executive function, ADHD, and hyposexuality; settings: human, in vivo
[12] = test system: Sexual Function and ADD; experiment: Case history 4, Sibutramine Patient No. 109; type: in vivo, human; settings: before sibutramine
[13] = test system: Fibromyalgia—Chronic Fatigue Syndrome; settings: before sibutramine
[14] = mood swings, cognitive, anger, sexual problems, before sibutramine
[15] = over six years before sibutramine
[16] = depression, impulsive behaviors, mood swings, epileptic symptoms

## CN1CCN(C2=Nc3cc(Cl)ccc3Nc3ccccc32)CC1 [Clozapine]
[1]; human, in vivo
  fall of IQ: 30 points

## CN(C)CCC=C1c2ccccc2CCc2ccccc21 [Elavil]
[2]; before sibutramine
  response to other treatments: helped their sleep and slightly increased their appetite but did not affect the pain

## NCC1(CC(=O)O)CCCCC1 [Neurontin]
[2]; before sibutramine
  response to other treatments: ineffective

## NC12CC3CC(CC(C3)C1)C2 [amantadine]
[3]; treatments before sibutramine
  response of psychosis symptoms to other medications: without success

## CC(N)Cc1ccccc1 (centres unmarked) [amphetamine]
[4]
  response to other medications: helped their hyperactivity and OCD symptoms in part

## CC(NC(C)(C)C)C(=O)c1cccc(Cl)c1 (centres unmarked) [bupropion]
[5]
  response to other medications: unsuccessful
[6]; [14]
  response to other medications: unsuccessful

## O=C1CC2(CCCC2)CC(=O)N1CCCCN1CCN(c2ncccn2)CC1 [buspirone]
[7]; human, in vivo
  response of PTSD symptoms to other medications: unsuccessful
[3]; treatments before sibutramine
  response of psychosis symptoms to other medications: without success

## OC(O)C(Cl)(Cl)Cl [chloral hydrate]
[8]
  response to other medications: without any changes in their speech or mode of communication

## CN(C)CCCN1c2ccccc2CCc2ccc(Cl)cc21 [clomipramine]
[1]
  response to other medications: without success
[9]; [15]
  response to other medications: without any good results

## Clc1cccc(Cl)c1N=C1NCCN1 [clonidine]
[9]; [15]
  response to other medications: without any good results

## CNCCCN1c2ccccc2CCc2ccccc21 [desipramine]
[6]; [14]
  response to other medications: not helpful
[9]; [15]
  response to other medications: without any good results

## CCN[C@@H](C)Cc1cccc(C(F)(F)F)c1 [dextrofenfluramine]
[1]
  response to other medications: without success

## COc1cc2c(cc1OC)C(=O)C(CC1CCN(Cc3ccccc3)CC1)C2 (centres unmarked) [donepezil]
[4]
  response to other medications: unsuccessful
[1]
  response to other medications: without success
[10]; [16]
  response to other medications: refractory
[11]
  response to other medications: unsuccessful
[6]; [14]
  response to other medications: not helpful
[9]; [15]
  response to other medications: helped their cognitive problems without aggravating their tics or their outbursts

## NC(=O)OCC(COC(N)=O)c1ccccc1 [felbamate]
[1]
  response to other medications: without success
[9]; [15]
  response to other medications: without any good results

## CCNC(C)Cc1cccc(C(F)(F)F)c1 (centres unmarked) [fenfluramine]
[8]
  response to other medications: without any changes in their speech or mode of communication
[7]; before sibutramine
  response of PTSD symptoms to other medications: unsuccessful
[1]
  response to other medications: without success
[6]; [14]
  response to other medications: not helpful
[9]; [15]
  response to other medications: without any good results

## OCCN1CCN(CCCN2c3ccccc3Sc3ccc(C(F)(F)F)cc32)CC1 [fluphenazine]
[1]
  response to other medications: without success

## COCCCC/C(=N\OCCN)c1ccc(C(F)(F)F)cc1 [fluvoxamine]
[4]
  response to other medications: helped their hyperactivity and OCD symptoms in part
[1]
  response to other medications: without success

## O=C(CCCN1CCC(O)(c2ccc(Cl)cc2)CC1)c1ccc(F)cc1 [haloperidol]
[8]
  response to other medications: without any changes in their speech or mode of communication
[3]; treatments before sibutramine
  response of psychosis symptoms to other medications: without success
[5]
  response to other medications: unsuccessful
[1]
  response to other medications: without success

## OCCOCCN1CCN(C(c2ccccc2)c2ccc(Cl)cc2)CC1 (centres unmarked) [hydroxyzine]
[9]; [15]
  response to other medications: without any good results

## CN(C)CCCN1c2ccccc2CCc2ccccc21 [imipramine]
[10]; [16]
  response to other medications: refractory
[6]; [14]
  response to other medications: unsuccessful

## Nc1nnc(-c2cccc(Cl)c2Cl)c(N)n1 [lamotrigine]
[12]
  response to other medications: unsuccessful
[4]
  response to other medications: without success
[1]
  response to other medications: without success
[11]
  response to other medications: unsuccessful
[6]; [14]
  response to other medications: not helpful
[9]; [15]
  response to other medications: without any good results

## CCN(CC)CC(=O)Nc1c(C)cccc1C [lidocaine]
[2]; in vivo
  response to other treatments: numbed the area

## O=C([O-])[O-].[Li+].[Li+] [lithium carbonate]
[10]; human, in vivo
  response to other medications: refractory
[6]; human, in vivo
  response to other medications: unsuccessful and made their obesity worse

## O=C1Nc2ccc(Cl)cc2C(c2ccccc2Cl)=NC1O (centres unmarked) [lorazepam]
[3]; treatments before sibutramine
  response of psychosis symptoms to other medications: without success

## COc1ccc2cc(CCC(C)=O)ccc2c1 [nabumetone]
[13]
  response to other medications: unsuccessfully

## CC(C)(C)NCC(O)COc1cccc2c1CC(O)C(O)C2 (centres unmarked) [nadolol]
[8]
  response to other medications: without any changes in their speech or mode of communication

## CNCCC=C1c2ccccc2CCc2ccccc21 [nortriptyline]
[6]; human, in vivo
  response to other medications: unsuccessful

## O=C(O)CCc1nc(-c2ccccc2)c(-c2ccccc2)o1 [oxaprozin]
[13]
  response to other medications: unsuccessfully

## NC(=O)N1c2ccccc2CC(=O)c2ccccc21 [oxcarbazepine]
[7]; before sibutramine
  response of PTSD symptoms to other medications: unsuccessful

## Fc1ccc([C@@H]2CCNC[C@H]2COc2ccc3c(c2)OCO3)cc1 [paroxetine]
[3]; treatments before sibutramine
  response of psychosis symptoms to other medications: without success

## NC1=NC(=O)C(c2ccccc2)O1 (centres unmarked) [pemoline]
[7]; before sibutramine
  response of PTSD symptoms to other medications: unsuccessful

## CC(C)(N)Cc1ccccc1 [phenteramine]
[6]; [14]
  response to other medications: helped them lose a small amount of weight but did not affect their other problems

## O=C1NC(=O)C(c2ccccc2)(c2ccccc2)N1 [phenytoin]
[7]; before sibutramine
  response of PTSD symptoms to other medications: unsuccessful
[9]; [15]
  response to other medications: without any good results

## CC(C)NCC(O)COc1cccc2ccccc12 (centres unmarked) [propranolol]
[8]
  response to other medications: without any changes in their speech or mode of communication
[12]
  response to other medications: unsuccessful
[9]; [15]
  response to other medications: without any good results

## OCCOCCN1CCN(C2=Nc3ccccc3Sc3ccccc32)CC1 [quetiapine]
[8]
  response to other medications: without any changes in their speech or mode of communication
[3]; treatments before sibutramine
  response of psychosis symptoms to other medications: did not control their symptoms
[9]; [15]
  response to other medications: without any good results

## Cc1nc2n(c(=O)c1CCN1CCC(c3noc4cc(F)ccc34)CC1)CCCC2 [risperidone]
[3]; human, in vivo
  response of psychosis symptoms to other medications: without success
[9]; human, in vivo
  response to other medications: without any good results

## CCCN(CCC)CCc1cccc2c1CC(=O)N2 [ropinirole]
[4]
  response to other medications: unsuccessful

## C#CCN(C)[C@H](C)Cc1ccccc1 [selegiline]
[1]
  response to other medications: without success
[11]
  response to other medications: unsuccessful
[6]; [14]
  response to other medications: not helpful
[9]; [15]
  response to other medications: without any good results

## CN[C@H]1CC[C@@H](c2ccc(Cl)c(Cl)c2)c2ccccc21 [sertraline]
[10]; [16]
  response to other medications: refractory

## CCCc1nn(C)c2c(=O)[nH]c(-c3cc(S(=O)(=O)N4CCN(C)CC4)ccc3OCC)nc12 [sildenafil]
[12]
  response to other medications: only increased sexual function but not libido
[11]
  response to other medications: helped correct the mechanical dysfunction but not the libido
[6]; [14]
  response to other medications: did not help their sexual libido

## Nc1c2c(nc3ccccc13)CCCC2 [tacrine]
[1]
  response to other medications: without success
[9]; [15]
  response to other medications: without any good results

## CSc1ccc2c(c1)N(CCC1CCCCN1C)c1ccccc1S2 (centres unmarked) [thioridazine]
[8]
  response to other medications: without any changes in their speech or mode of communication

## N[C@@H](Cc1cc(I)c(Oc2cc(I)c(O)c(I)c2)c(I)c1)C(=O)O [thyroxine]
[6]; [14]
  response to other medications: not helpful

## COc1cccc(C2(O)CCCCC2CN(C)C)c1 (centres unmarked) [tramadol]
[13]
  response to other medications: unsuccessfully

## CN1CCN(CCCN2c3ccccc3Sc3ccc(C(F)(F)F)cc32)CC1 [trifluoperazine]
[3]; treatments before sibutramine
  response of psychosis symptoms to other medications: without success

## COC(=O)[C@@H]1[C@H]2C[C@H]3c4[nH]c5ccccc5c4CCN3C[C@@H]2CC[C@@H]1O [yohimbine]
[12]
  response to other medications: unsuccessful
